Data published in the supplement of paper PMC10307832.

Experiments:
Assay in all cases: relative viability (nuclei count vs DMSO), 5 days (fraction); higher = more cells survive
[1] = system: NCI-H322M
How it was run: (§1)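 Dosing by pin tool came one day after lung cancer cell lines were seeded in 1536-well plates, using either one drug or a fixed anchor-drug dose plus five library-drug doses (not always all listed) in √10 steps. After 5 days, nuclei were counted on 4× images. Relative viability is treated-well nuclei count divided by vehicle-well nuclei count, and values are medians of duplicate plates.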

[2] = system: NCI-H2228
How it was run: as §1

[3] = system: CAL-12T
How it was run: as §1

[4] = system: NCI-H838
How it was run: as §1

[5] = system: NCI-H1666
How it was run: as §1

[6] = system: PC-3 [JPC-3]
How it was run: as §1

[7] = system: NCI-H1915
How it was run: as §1

[8] = system: UMC-11
How it was run: as §1

[9] = system: LK-2
How it was run: as §1

[10] = system: NCI-H2087
How it was run: as §1

[11] = system: SK-MES-1
How it was run: as §1

[12] = system: NCI-H358
How it was run: as §1

[13] = system: PC-14
How it was run: as §1

[14] = system: LCLC-97TM1
How it was run: as §1

[15] = system: NCI-H1651
How it was run: as §1

[16] = system: NCI-H2085
How it was run: as §1

[17] = system: NCI-H1792
How it was run: as §1

[18] = system: ABC-1
How it was run: as §1

[19] = system: NCI-H1355
How it was run: as §1

[20] = system: A-427
How it was run: as §1

[21] = system: NCI-H661
How it was run: as §1

[22] = system: H3255
How it was run: as §1

Which results are given for `Cc1cnc(-c2cnc(NCCNc3ccc(C#N)cn3)nc2-c2ccc(Cl)cc2Cl)[nH]1` + C[C@@H](Oc1cc(-c2cnn(C3CCNCC3)c2)cnc1N)c1c(Cl)ccc(F)c1Cl [Crizotinib] (partner 1 µM)?
relative viability ([1]; first compound 0.08 µM): 0.925; relative viability ([1]; first compound 0.253 µM): 0.81; relative viability ([1]; first compound 0.8 µM): 0.821; relative viability ([1]; first compound 2.53 µM): 0.858; relative viability ([2]; first compound 0.08 µM): 0.47; relative viability ([2]; first compound 0.253 µM): 0.412; relative viability ([2]; first compound 0.8 µM): 0.612; relative viability ([2]; first compound 2.53 µM): 0.619; relative viability ([3]; first compound 0.08 µM): 0.722; relative viability ([3]; first compound 0.253 µM): 0.507; relative viability ([3]; first compound 0.8 µM): 0.529; relative viability ([3]; first compound 2.53 µM): 0.376; relative viability ([4]; first compound 0.08 µM): 0.855; relative viability ([4]; first compound 0.253 µM): 0.807; relative viability ([4]; first compound 0.8 µM): 0.951; relative viability ([4]; first compound 2.53 µM): 1.01; relative viability ([5]; first compound 0.08 µM): 0.981; relative viability ([5]; first compound 0.253 µM): 0.822; relative viability ([5]; first compound 0.8 µM): 1.26; relative viability ([5]; first compound 2.53 µM): 1.19; relative viability ([6]; first compound 0.08 µM): 0.936; relative viability ([6]; first compound 0.253 µM): 0.894; relative viability ([6]; first compound 0.8 µM): 0.999; relative viability ([6]; first compound 2.53 µM): 0.953; relative viability ([7]; first compound 0.08 µM): 0.85; relative viability ([7]; first compound 0.8 µM): 0.896; relative viability ([7]; first compound 2.53 µM): 0.931; relative viability ([8]; first compound 0.08 µM): 0.82; relative viability ([8]; first compound 0.253 µM): 0.551; relative viability ([8]; first compound 0.8 µM): 0.598; relative viability ([8]; first compound 2.53 µM): 0.602; relative viability ([9]; first compound 0.08 µM): 0.194; relative viability ([9]; first compound 0.253 µM): 0.239; relative viability ([9]; first compound 0.8 µM): 0.242; relative viability ([9]; first compound 2.53 µM): 0.236; relative viability ([10]; first compound 0.08 µM): 0.744; relative viability ([10]; first compound 0.253 µM): 0.823; relative viability ([10]; first compound 0.8 µM): 0.862; relative viability ([10]; first compound 2.53 µM): 0.693; relative viability ([11]; first compound 0.08 µM): 0.97; relative viability ([11]; first compound 0.253 µM): 0.937; relative viability ([11]; first compound 0.8 µM): 1.05; relative viability ([11]; first compound 2.53 µM): 0.941; relative viability ([12]; first compound 0.08 µM): 0.609; relative viability ([12]; first compound 0.253 µM): 0.548; relative viability ([12]; first compound 0.8 µM): 0.569; relative viability ([12]; first compound 2.53 µM): 0.46; relative viability ([13]; first compound 0.08 µM): 0.911; relative viability ([13]; first compound 0.253 µM): 0.811; relative viability ([13]; first compound 0.8 µM): 0.896; relative viability ([13]; first compound 2.53 µM): 0.807; relative viability ([14]; first compound 0.08 µM): 0.338; relative viability ([14]; first compound 0.253 µM): 0.401; relative viability ([14]; first compound 0.8 µM): 0.362; relative viability ([14]; first compound 2.53 µM): 0.349; relative viability ([15]; first compound 0.08 µM): 0.915; relative viability ([15]; first compound 0.253 µM): 0.797; relative viability ([15]; first compound 0.8 µM): 0.852; relative viability ([15]; first compound 2.53 µM): 0.825; relative viability ([16]; first compound 0.08 µM): 0.719; relative viability ([16]; first compound 0.253 µM): 0.888; relative viability ([16]; first compound 0.8 µM): 1.06; relative viability ([16]; first compound 2.53 µM): 0.974; relative viability ([17]; first compound 0.08 µM): 0.975; relative viability ([17]; first compound 0.253 µM): 0.803; relative viability ([17]; first compound 0.8 µM): 0.947; relative viability ([17]; first compound 2.53 µM): 0.936; relative viability ([18]; first compound 0.08 µM): 1.03; relative viability ([18]; first compound 0.253 µM): 0.831; relative viability ([18]; first compound 0.8 µM): 1.23; relative viability ([18]; first compound 2.53 µM): 1.05; relative viability ([19]; first compound 0.08 µM): 1.1; relative viability ([19]; first compound 0.253 µM): 0.9; relative viability ([19]; first compound 0.8 µM): 1; relative viability ([19]; first compound 2.53 µM): 0.992; relative viability ([20]; first compound 0.08 µM): 0.911; relative viability ([20]; first compound 0.253 µM): 0.972; relative viability ([20]; first compound 0.8 µM): 0.882; relative viability ([20]; first compound 2.53 µM): 0.826; relative viability ([21]; first compound 0.08 µM): 0.924; relative viability ([21]; first compound 0.253 µM): 0.941; relative viability ([21]; first compound 0.8 µM): 0.947; relative viability ([21]; first compound 2.53 µM): 0.867; relative viability ([22]; first compound 0.08 µM): 1.03; relative viability ([22]; first compound 0.253 µM): 0.809; relative viability ([22]; first compound 0.8 µM): 0.853; relative viability ([22]; first compound 2.53 µM): 0.79
